Where two headings read alike, the source gives them in different places.
Tests used:
Type in all cases: in vivo, male Sprague Dawley rats
[1] = test system: blood glucose level in adrenalectomized rats; assay: Hypoglycemic effect in adrenalectomized rats; conditions: for Reduction % from control / Blood glucose: 2 hours; for Blood glucose: ± SE
Text: (§1) These new compounds of the present invention are very useful as anti-diabetic agents, which is supported from the following pharmacological studies. The animals used for the pharmacological studies were male Sprague Dawley rats exept otherwise noted. 1. Hypoglycemic activity in non-diabetic rats (screening test)
The rats were adrenalectomized (both left and right adrenal glands) and were bred for 6-7 days by using 1% saline solution as for drinking water. The adrenalectomized rats were then fasted for 16-18 hours prior to the experiment. Glucose loading (100 mg/150g body weight) was performed by a subcutaneous administration of glucose solution on the back of the rats. Immediately after the glucose loading, the compound 4 suspended in 1% CMC was orally administered. Two hours after the oral administration, blood was obtained from the vena cava candalis of the rats under anesthesia with sodium pentobarbital. Blood glucose level was determined by the method of Momose.

[2] = test system: blood glucose level in alloxan diabetic rats; assay: Blood glucose level in alloxan diabetic rats loaded with much quantity of glucose
Protocol: as §1
Respective dose of the compound 4 (12.5 and 100 mg/kg) together with 2g/kg of glucose was orally administered to the alloxan diabetic rats.

[3] = test system: liver glycogen level in rats loaded with glucose; assay: Liver glycogen level in rats loaded with glucose; conditions: oral in 40% glucose solution; 3 hours
Protocol: (§2) The animals used for the pharmacological studies were male Sprague Dawley rats exept otherwise noted. 1. Hypoglycemic activity in non-diabetic rats (screening test)
The rats were fasted for 16 - 18 hours, and then the compound 4 suspended in 40% glucose solution was orally administered (5 ml/kg of the suspension per body weight). Glycogen content in the liver was determined at 3 hours after the administration.

[4] = test system: serum FFA level in fasted rats; assay: Time course of the serum FFA level in fasted rats (FIG. 1); conditions: 50 mg/kg oral; 0.5, 1, 2, 4 and 6 hours
Protocol: as §1
Further experiment was performed to clarify the effectiveness of the compound 4 on the serum FFA. Blood samples were taken at 0.5, 1, 2, 4 and 6 hours after an oral administration of 50 mg/kg to the fasted rats and the serum FFA levels were determined.

[5] = test system: blood glucose level in non-diabetic rats; assay: Synergistic effect on the insulin activity in non-diabetic rats; conditions: insulin 0.1 unit/kg s.c.; compound 4 25 mg/kg oral
Protocol: as §2
The blood glucose levels in the non-diabetic rats were respectively determined after a subcutaneous injection of insulin (0.1 unit/kg), after an oral administration of the compound 4 (25 mg/kg), and after simultaneous administrations of insulin and the compund 4.

[6] = test system: blood glucose level in non-diabetic rats; assay: Blood glucose level in non-diabetic rats at 90 minutes; conditions: 100 mg/kg oral
Protocol: as §1
The rats were fasted for 16-18 hours, and those weighing 130-160g were used. The compound 4 suspended in 1% CMC was orally administered to the fasted rats, and at 90 minutes after administration blood was drawn from the […] vena cava under anesthesia with sodium pentobarbital. The blood glucose level was determined by the method of Momose, and the serum FFA level was determined by the method of Itaya and Ui as described in J. Lipid Res., 6, 16 (1965), respectively.

[7] = test system: serum FFA level in non-diabetic rats; assay: Serum FFA level in non-diabetic rats, oral administration for 10 days
Protocol: as §1
(§3) The compound suspended in 1% CMC was orally administered once a day for 10 days to healthy rats weighing 140-160g. The rats were fasted for 16-18 hours prior to the last administration. Blood samples were taken at 90 minutes after the last administration, and the blood glucose and serum FFA levels were determined, respectively.

[8] = test system: blood glucose level in non-diabetic rats; assay: Hypoglycemic activity in non-diabetic rats (screening test); conditions: Rattus norvegicus, 100 mg/kg oral, fasted, glucose s.c.
Protocol: as §1
The rats were fasted for 16 - 18 hours prior to the experiment and those weighing 140 - 160g were used. Glucose solution (100 mg/0.5ml/150g body weight) was subcutaneously injected on the fasted rats. Each of the present compounds was suspended in 1% carboxymethyl cellulose (CMC), and about 0.5 ml of the suspension (corresponding to 100 mg/kg of the compound per body weight) was orally administered. Blood samples were taken from the tail vein of the rats at 2 and 5 hours after the administration, and the blood glucose level in each sample (0.1 ml) was determined by the micro method of Momose as described in SOGO-RINSHO 11, 120 (1962).
3,5-Dinitrophthalic acid is reduced with glucose to stable orange-red azo-compound via red hydroxyaminophthalic acid in basic media.
To 0.5ml of water was added 0.1ml of blood and shaken to hemolyze, and to which was added 1.7ml of 0.06N barium hydroxide solution. To the resulting dark-brown solution was added 1.7ml of zinc sulfate solution (1g/dl), and which was shaken thoroughly and allowed to stand for 2-3min followed by centrifugation.
One ml of 3,5-dinitrophthalic acid solution (1.5g of monopyridinium-3,5-dinitrophthalate in 500ml of water) and 1 ml of sodium carbonatesodium hyposulfite solution (125-25g/500ml) were added to 2ml of spernatant solution. The solution was heated at 100° C for 10 min. After cooling with running water for 3 min, water was added to make 20ml.
To 2ml of water were added 3,5-dinitrophthalic acid solution and an alkaline solution, and the solution was treated as mentioned above.
As the absorbance of reference at 450nm was adjusted to 0, the absorbance of sample corresponded to blood glucose level.

[9] = test system: blood glucose level in streptozotocin-diabetic rats; assay: Hypoglycemic effect in streptozotocin-diabetic rats; conditions: for Blood glucose level Before: before (baseline); for Hypoglycemic effect in streptozotocin-diabetic rats (in words): oral
Protocol: The animals used for the pharmacological studies were male Sprague Dawley rats exept otherwise noted. 1. […]
The rats were fasted for 16 hours, and then streptozotocin was intravenously injected in a dose of 65 mg/kg. Oral administration of the compound 4 was performed at 48 hours after the injection of streptozotocin. Blood samples were taken at 4 hours after the oral administration, and the blood glucose level in each sample was determined.

[10] = test system: blood glucose level in non-diabetic rats; assay: Blood glucose level in non-diabetic rats, oral administration for 10 days
Protocol: as §1, §3

[11] = 2 hours, read-out: Reduction % of blood glucose from control after 2 hours
[12] = 5 hours, read-out: Reduction % of blood glucose from control after 5 hours
[13] = Rattus norvegicus, 100 mg/kg oral, 4 hours

For `Cc1cc(C)n(C(=O)CNS(=O)(=O)c2ccc(Cl)cc2)n1` [Example 4, 1-(N-p-chlorobenzenesulfonyl-glycyl)-3,5-dimethylpyrazole], the “Reduction of the blood glucose level (in words)” value ([1]; 0.125 mg/kg oral) was “significantly reduced the blood glucose level even at low dose of 0.125 mg/kg”, the “Reduction % from control” value ([1]; 0.125 mg/kg oral) was 51.9% and the Blood glucose ([1]; 0.125 mg/kg oral) was 37.9 ± 5.5 mg %. For the same compound, the “Reduction % from control” value ([1]; 0.25 mg/kg oral) was 70.4%, the Blood glucose ([1]; 0.25 mg/kg oral) was 23.3 ± 4.0 mg % and the “Reduction % from control” value ([1]; 0.50 mg/kg oral) was 77.5%. For the same compound, the Blood glucose ([1]; 0.50 mg/kg oral) was 17.8 ± 3.6 mg %, the “Reduction % from control” value ([1]; 1.0 mg/kg oral) was 83.6% and the Blood glucose ([1]; 1.0 mg/kg oral) was 12.9 ± 1.4 mg %. The “Reduction % from control” value ([1]; 2.0 mg/kg oral) was 81.6%, the Blood glucose ([1]; 2.0 mg/kg oral) was 14.5 ± 3.2 mg % and the “Reduction % from control” value ([1]; 4.0 mg/kg oral) was 81.6%. For the same compound, the Blood glucose ([1]; 4.0 mg/kg oral) was 14.6 ± 2.9 mg %, the “Effect on blood glucose level (in words)” value ([2]; 12.5 and 100 mg/kg oral with 2g/kg of glucose, 3 hours) was “significantly lowered at 3 hours after the administration (p<0.005)” and the “Effect on the liver glycogen level” value [3] was “significantly reduced the liver glycogen level (p<0.001)”. For the same compound, the “Effect on serum FFA level (in words, FIG. 1)” value [4] was “markedly lowered the FFA level, and this effect could be observed at 6 hours after”, the “Effect of combined use with insulin on blood glucose level” value [5] was “more effective to reduce the blood glucose level than the individual administration” and the Blood glucose level [6] was 66.5 ± 6.0 mg/dL. For the same compound, the “Effect on blood glucose level (in words)” value [6] was “significantly lowered the blood glucose level”, the “Serum FFA levels” value ([7]; 0.8 mg/kg oral once a day) was 46.8 ± 5.1 μ Eq/dl and the “Effect on serum FFA level (in words)” value ([7]; 0.8 mg/kg/day oral) was “significantly lowered the serum FFA level even at a low dose (0.8mg/kg/day)”. The “Serum FFA levels” value ([7]; 3.1 mg/kg oral once a day) was 35.9 ± 2.9 μ Eq/dl, the “Serum FFA levels” value ([7]; 12.5 mg/kg oral once a day) was 27.1 ± 1.5 μ Eq/dl and the “Serum FFA levels” value ([7]; 50.0 mg/kg oral once a day) was 27.9 ± 1.5 μ Eq/dl. The inhibition in vivo at 100 mg/kg [8, 11] was 41.9%, the inhibition in vivo at 100 mg/kg [8, 12] was 25.2% and the “Blood glucose level Before” value ([9]; 6.25 mg/kg oral group) was 425.3 ± 10.5 mg %. For the same compound, the “Blood glucose level 4 hours” value ([9]; 6.25 mg/kg oral, 4 hours) was 263.2 ± 26.6 mg %, the “Blood glucose level Before” value ([9]; 25 mg/kg oral group) was 415.8 ± 12.2 mg % and the “Blood glucose level 4 hours” value ([9]; 25 mg/kg oral, 4 hours) was 251.2 ± 21.8 mg %. For the same compound, the “Blood glucose level Before” value ([9]; 100 mg/kg oral group) was 411.5 ± 16.9 mg %, the “Blood glucose level 4 hours” value ([9]; 100 mg/kg oral, 4 hours) was 231.4 ± 33.3 mg % and the inhibition at 6.25 mg/kg ([9]; Rattus norvegicus, 6.25 mg/kg oral, 4 hours) was 61.9 ± 6.2%. The inhibition at 25 mg/kg ([9]; Rattus norvegicus, 25 mg/kg oral, 4 hours) was 59.8 ± 3.8%, the inhibition at 100 mg/kg [9, 13] was 54.3 ± 6.4% and the “Hypoglycemic effect in streptozotocin-diabetic rats (in words)” value ([9]; 4 hours) was “markedly reduced the blood glucose level”. For the same compound, the Blood glucose levels ([10]; 0.8 mg/kg oral once a day) was 81.6 ± 4.8 mg/dL, the Blood glucose levels ([10]; 3.1 mg/kg oral once a day) was 74.4 ± 6.6 mg/dL and the Blood glucose levels ([10]; 12.5 mg/kg oral once a day) was 74.8 ± 3.9 mg/dL. The Blood glucose levels ([10]; 50.0 mg/kg oral once a day) was 69.9 ± 6.7 mg/dL.

For `CCCCNC(=O)NS(=O)(=O)c1ccc(C)cc1` [Tolbutamide, reference compound], the “Reduction % from control” value ([1]; 15 mg/kg oral) was 42.0%, the Blood glucose ([1]; 15 mg/kg oral) was 45.7 ± 7.3 mg % and the “Reduction % from control” value ([1]; 30 mg/kg oral) was 79.2%. For the same compound, the Blood glucose ([1]; 30 mg/kg oral) was 16.4 ± 2.1 mg %, the “Reduction % from control” value ([1]; 60 mg/kg oral) was 87.9% and the Blood glucose ([1]; 60 mg/kg oral) was 9.5 ± 0.6 mg %. The “Hypoglycemic effect (in words)” value ([2]; alloxan diabetic rats, dose not stated) was “no hypoglycemic effect”, the “Effect on the liver glycogen level” value [3] was “neither tolbutamide or pnenformin exerted such effect” and the “Effect on serum FFA level (in words, FIG. 1)” value [4] was “only a slight suppression”. The “Effect of combined use with insulin on blood glucose level” value [5] was “not more effective than the administration of tolbutamide alone”, the Blood glucose level [6] was 57.7 ± 12.1 mg/dL and the “Effect on blood glucose level (in words)” value [6] was “significantly lowered the blood glucose level”. For the same compound, the “Serum FFA levels” value ([7]; 50.0 mg/kg oral once a day) was 45.1 ± 2.7 μ Eq/dl, the inhibition in vivo at 100 mg/kg [8, 11] was 54.1% and the inhibition in vivo at 100 mg/kg [8, 12] was 52.4%. For the same compound, the “Blood glucose level Before” value ([9]; 100 mg/kg oral group) was 413.9 ± 10.2 mg %, the “Blood glucose level 4 hours” value ([9]; 100 mg/kg oral, 4 hours) was 327.8 ± 11.3 mg % and the inhibition at 100 mg/kg [9, 13] was 79.4 ± 2.7%. The “Hypoglycemic effect in streptozotocin-diabetic rats (in words)” value ([9]; 4 hours) was “did not have a potent hypoglycemic activity” and the Blood glucose levels ([10]; 50.0 mg/kg oral once a day) was 33.6 ± 6.3 mg/dL.

From patent publication US4007201A, “Novel pyrazole derivatives” (Kyorin Pharmaceutical Co. Ltd., priority 1975, dated 1977)
